Experimental data: US9302999B2, “Substituted triazoles as herbicides” (E. I. DU PONT DE NEMOURS AND COMPANY, priority 2012, dated 2016)

Experiments:
Format in all cases: in vivo
[1] = system: barnyardgrass (Echinochloa crus-galli); experiment: Test A pre-/postemergence: barnyardgrass; details: for Barnyardgrass plant response rating: Postemergence; for Plant response rating, Barnyardgrass: Preemergence
Method in brief: (§1)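 Pre: directed soil spray after planting in loam + sand. Post: same formulation (non-phytotoxic solvent + surfactant) on 1–2-leaf plants, 2–10 cm. Greenhouse ~10 d; visual injury 0–100 vs untreated.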

[2] = system: pigweed (Amaranthus retroflexus); experiment: Test A pre-/postemergence: pigweed; details: for Pigweed plant response rating: Postemergence; for Plant response rating, Pigweed: Preemergence
Method in brief: as §1

[3] = system: barnyardgrass (Echinochloa crus-galli); experiment: Test C flooded paddy test: barnyardgrass; details: scale 0 to 100 (0 no effect, 100 complete control)
Method in brief: (§2)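 2-leaf stage plants; pots flooded 3 cm above soil; compound applied into paddy water, depth maintained. Greenhouse 13–15 d. Visual rating vs controls, 0–100 (0 = no effect, 100 = complete control); dash = no result.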

[4] = system: ducksalad (Heteranthera limosa); experiment: Test C flooded paddy test: ducksalad; details: scale 0 to 100 (0 no effect, 100 complete control)
Method in brief: as §2

[5] = system: velvetleaf (Abutilon theophrasti); experiment: Test A pre-/postemergence: velvetleaf; details: for Velvetleaf plant response rating: Postemergence; for Plant response rating, Velvetleaf: Preemergence
Method in brief: as §1

[6] = system: sedge, umbrella (small-flower umbrella sedge, Cyperus difformis); experiment: Test C flooded paddy test: sedge, umbrella; details: scale 0 to 100 (0 no effect, 100 complete control)
Method in brief: as §2

[7] = system: wheat (Triticum aestivum); experiment: Test A pre-/postemergence: wheat; details: for Wheat plant response rating: Postemergence; for Plant response rating, Wheat: Preemergence
Method in brief: as §1

[8] = system: morningglory (Ipomoea spp.); experiment: Test A pre-/postemergence: morningglory; details: for Morningglory plant response rating: Postemergence; for Plant response rating, Morningglory: Preemergence
Method in brief: as §1

[9] = system: foxtail, giant (giant foxtail, Setaria faberii); experiment: Test A pre-/postemergence: foxtail, giant; details: for Foxtail, Giant plant response rating: Postemergence; for Plant response rating, Foxtail, Giant: Preemergence
Method in brief: as §1

corn (Zea mays) = experiment: Test A pre-/postemergence: corn; details: for Corn plant response rating: Postemergence; for Plant response rating, Corn: Preemergence
Method in brief: as §1

rice (Oryza sativa) = experiment: Test C flooded paddy test: rice; details: scale 0 to 100 (0 no effect, 100 complete control)
Method in brief: as §2

[10] = system: crabgrass, large (large crabgrass, Digitaria sanguinalis); experiment: Test A pre-/postemergence: crabgrass, large; details: for Crabgrass, Large plant response rating: Postemergence; for Plant response rating, Crabgrass, Large: Preemergence
Method in brief: as §1

[11] = 125 g ai/ha, 0 to 100 scale, 0 is no effect, 100 is complete control
[12] = 500 g ai/ha, visual rating on 0 to 100 scale (0 no effect, 100 complete control), approximately ten days
[13] = 125 g ai/ha, 0 to 100 scale (0 no effect, 100 complete control)
[14] = 500 g ai/ha, 0 to 100 scale, 0 is no effect, 100 is complete control
[15] = Flood (flooded paddy test), 62 g ai/ha, visual rating after 13 to 15 days
[16] = Flood (flooded paddy test), 125 g ai/ha, visual rating after 13 to 15 days
[17] = Flood (flooded paddy test), 250 g ai/ha, visual rating after 13 to 15 days

Cc1nn(-c2nc(Cl)ns2)nc1C(=O)c1cccc(C(F)(F)F)c1 [Compound 59]
Barnyardgrass plant response rating [1, 11]: 0
Barnyardgrass plant response rating [1, 12]: 0
Plant response rating, Barnyardgrass [1, 13]: 0
Plant response rating, Barnyardgrass [1, 14]: 0
Pigweed plant response rating [2, 11]: 0
Pigweed plant response rating [2, 12]: 0
Plant response rating, Pigweed [2, 13]: 0
Plant response rating, Pigweed [2, 14]: 0
Plant response rating, Barnyardgrass [3, 15]: 0
Plant response rating, Barnyardgrass [3, 16]: 0
Plant response rating, Barnyardgrass [3, 17]: 0
Plant response rating, Barnyardgrass ([3]; Flood, 31 g ai/ha): 0
Plant response rating, Ducksalad [4, 15]: 0
Plant response rating, Ducksalad [4, 16]: 0
Plant response rating, Ducksalad [4, 17]: 0
Plant response rating, Ducksalad ([4]; Flood, 31 g ai/ha): 0
Velvetleaf plant response rating [5, 11]: 0
Velvetleaf plant response rating [5, 12]: 0
Plant response rating, Velvetleaf [5, 13]: 0
Plant response rating, Velvetleaf [5, 14]: 0
Plant response rating, Sedge, Umbrella [6, 15]: 0
Plant response rating, Sedge, Umbrella [6, 16]: 0
Plant response rating, Sedge, Umbrella [6, 17]: 0
Plant response rating, Sedge, Umbrella ([6]; Flood, 31 g ai/ha): 0
Wheat plant response rating [7, 11]: 0
Wheat plant response rating [7, 12]: 0
Plant response rating, Wheat [7, 13]: 0
Plant response rating, Wheat [7, 14]: 0
Morningglory plant response rating [8, 11]: 0
Morningglory plant response rating [8, 12]: 0
Plant response rating, Morningglory [8, 13]: 0
Plant response rating, Morningglory [8, 14]: 0
Foxtail, Giant plant response rating [9, 11]: 0
Foxtail, Giant plant response rating [9, 12]: 0
Plant response rating, Foxtail, Giant [9, 13]: 0
Plant response rating, Foxtail, Giant [9, 14]: 0
Corn plant response rating (corn (Zea mays); [11]): 0
Corn plant response rating (corn (Zea mays); [12]): 0
Plant response rating, Corn (corn (Zea mays); [13]): 0
Plant response rating, Corn (corn (Zea mays); [14]): 0
Plant response rating, Rice (rice (Oryza sativa); [15]): 0
Plant response rating, Rice (rice (Oryza sativa); [16]): 0
Plant response rating, Rice (rice (Oryza sativa); [17]): 0
Plant response rating, Rice (rice (Oryza sativa); Flood, 31 g ai/ha): 0
Crabgrass, Large plant response rating [10, 11]: 0
Crabgrass, Large plant response rating [10, 12]: 0
Plant response rating, Crabgrass, Large [10, 13]: 0
Plant response rating, Crabgrass, Large [10, 14]: 0

Cc1nn(-c2ccnc(C(F)(F)F)c2)nc1C(=O)c1cccc(C(F)(F)F)c1 [Compound 49]
Barnyardgrass plant response rating [1, 11]: 10
Barnyardgrass plant response rating [1, 12]: 20
Plant response rating, Barnyardgrass [1, 13]: 10
Plant response rating, Barnyardgrass [1, 14]: 30
Pigweed plant response rating [2, 11]: 80
Pigweed plant response rating [2, 12]: 100
Plant response rating, Pigweed [2, 13]: 60
Plant response rating, Pigweed [2, 14]: 100
Plant response rating, Barnyardgrass [3, 15]: 0
Plant response rating, Barnyardgrass [3, 16]: 10
Plant response rating, Barnyardgrass [3, 17]: 15
Plant response rating, Barnyardgrass ([3]; Flood, 31 g ai/ha): 0
Plant response rating, Ducksalad [4, 15]: 0
Plant response rating, Ducksalad [4, 16]: 30
Plant response rating, Ducksalad [4, 17]: 40
Plant response rating, Ducksalad ([4]; Flood, 31 g ai/ha): 0
Velvetleaf plant response rating [5, 11]: 30
Velvetleaf plant response rating [5, 12]: 60
Plant response rating, Velvetleaf [5, 13]: 0
Plant response rating, Velvetleaf [5, 14]: 10
Plant response rating, Sedge, Umbrella [6, 15]: 0
Plant response rating, Sedge, Umbrella [6, 16]: 70
Plant response rating, Sedge, Umbrella [6, 17]: 75
Plant response rating, Sedge, Umbrella ([6]; Flood, 31 g ai/ha): 0
Wheat plant response rating [7, 11]: 10
Wheat plant response rating [7, 12]: 20
Plant response rating, Wheat [7, 13]: 10
Plant response rating, Wheat [7, 14]: 20
Morningglory plant response rating [8, 11]: 20
Morningglory plant response rating [8, 12]: 50
Plant response rating, Morningglory [8, 13]: 0
Plant response rating, Morningglory [8, 14]: 10
Foxtail, Giant plant response rating [9, 11]: 30
Foxtail, Giant plant response rating [9, 12]: 60
Plant response rating, Foxtail, Giant [9, 13]: 80
Plant response rating, Foxtail, Giant [9, 14]: 100
Corn plant response rating (corn (Zea mays); [11]): 10
Corn plant response rating (corn (Zea mays); [12]): 20
Plant response rating, Corn (corn (Zea mays); [13]): 0
Plant response rating, Corn (corn (Zea mays); [14]): 10
Plant response rating, Rice (rice (Oryza sativa); [15]): 0
Plant response rating, Rice (rice (Oryza sativa); [16]): 0
Plant response rating, Rice (rice (Oryza sativa); [17]): 0
Plant response rating, Rice (rice (Oryza sativa); Flood, 31 g ai/ha): 0
Crabgrass, Large plant response rating [10, 11]: 60
Crabgrass, Large plant response rating [10, 12]: 90
Plant response rating, Crabgrass, Large [10, 13]: 80
Plant response rating, Crabgrass, Large [10, 14]: 100

Cc1nn(-c2ccc(C(F)(F)F)cc2)nc1Oc1cncc(C(F)(F)F)c1 [Compound 37]
Barnyardgrass plant response rating [1, 11]: 10
Barnyardgrass plant response rating [1, 12]: 20
Plant response rating, Barnyardgrass [1, 13]: 30
Plant response rating, Barnyardgrass [1, 14]: 90
Pigweed plant response rating [2, 11]: 80
Pigweed plant response rating [2, 12]: 100
Plant response rating, Pigweed [2, 13]: 70
Plant response rating, Pigweed [2, 14]: 100
Plant response rating, Barnyardgrass [3, 15]: 10
Plant response rating, Barnyardgrass [3, 17]: 35
Plant response rating, Ducksalad [4, 15]: 0
Plant response rating, Ducksalad [4, 17]: 70
Velvetleaf plant response rating [5, 11]: 20
Velvetleaf plant response rating [5, 12]: 50
Plant response rating, Velvetleaf [5, 13]: 0
Plant response rating, Velvetleaf [5, 14]: 10
Plant response rating, Sedge, Umbrella [6, 15]: 0
Plant response rating, Sedge, Umbrella [6, 17]: 0
Wheat plant response rating [7, 11]: 0
Wheat plant response rating [7, 12]: 10
Plant response rating, Wheat [7, 13]: 0
Plant response rating, Wheat [7, 14]: 0
Morningglory plant response rating [8, 11]: 20
Morningglory plant response rating [8, 12]: 90
Plant response rating, Morningglory [8, 13]: 0
Plant response rating, Morningglory [8, 14]: 20
Foxtail, Giant plant response rating [9, 11]: 30
Foxtail, Giant plant response rating [9, 12]: 80
Plant response rating, Foxtail, Giant [9, 13]: 90
Plant response rating, Foxtail, Giant [9, 14]: 100
Corn plant response rating (corn (Zea mays); [11]): 10
Corn plant response rating (corn (Zea mays); [12]): 20
Plant response rating, Corn (corn (Zea mays); [13]): 0
Plant response rating, Rice (rice (Oryza sativa); [15]): 10
Plant response rating, Rice (rice (Oryza sativa); [17]): 20
Crabgrass, Large plant response rating [10, 11]: 20
Crabgrass, Large plant response rating [10, 12]: 70
Plant response rating, Crabgrass, Large [10, 13]: 90
Plant response rating, Crabgrass, Large [10, 14]: 100
